Experimental data from PubChem BioAssay (NCI).
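Briefly, cells in 96-well plates were exposed to five compound concentrations for 48 h, and endpoints were estimated by linear interpolation. At the GI50, growth is halved. TGI is the concentration that stops growth completely.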

Columns and labels:
Assay in all cases: NCI anticancer screen, dose series, 48 h
BT-549 breast = system: BT-549 breast
CCRF-CEM leukemia = system: CCRF-CEM leukemia
COLO 205 colon = system: COLO 205 colon
HOP-62 NSCLC = system: HOP-62 NSCLC
LOX IMVI melanoma = system: LOX IMVI melanoma
RPMI-8226 leukemia = system: RPMI-8226 leukemia
SF-295 CNS = system: SF-295 CNS

Structure (SMILES)	GI50 (BT-549 breast) [µM]	TGI (BT-549 breast) [µM]	GI50 (CCRF-CEM leukemia) [µM]	TGI (CCRF-CEM leukemia) [µM]	GI50 (COLO 205 colon) [µM]	TGI (COLO 205 colon) [µM]	GI50 (HOP-62 NSCLC) [µM]	TGI (HOP-62 NSCLC) [µM]	GI50 (LOX IMVI melanoma) [µM]	TGI (LOX IMVI melanoma) [µM]	GI50 (RPMI-8226 leukemia) [µM]	TGI (RPMI-8226 leukemia) [µM]	GI50 (SF-295 CNS) [µM]	TGI (SF-295 CNS) [µM]
CNCc1cccc2c1OCCOCCOCCNS(=O)(=O)c1ccc(cc1)-c1cnc(N)c(n1)C(=O)N2	1.27	8.14	0.532	8.57	1.02	2.44	1.27	2.96	0.889	2.27	1.73	4.26	1.76	3.39
O=C1NC(c2ccccc2Cl)Nc2ccccc21 (stereo not given)		> 100		> 81.5		> 54.1		> 100		> 100		62.8		> 72.3
O=c1c(Oc2ccc(F)cc2F)cc2cnc(NC3CCOCC3)nc2n1C1CC1	> 25	> 25	> 25	> 25	> 25	> 25	> 25	> 25	> 25	> 25	> 25	> 25	> 25	> 25
CN(C)[C@@H]1C(=O)C(C(=O)NCc2nc3[nH]cnc(=S)c3[nH]2)=C(O)[C@@]2(O)C(=O)C3=C(O)c4c(O)cccc4[C@@](C)(O)[C@H]3C[C@@H]12	> 100	> 100	1.02	> 100	3.87	> 100	1.4	> 100	1.23	> 100	4.35	> 100	> 100	> 100
COc1ccccc1CNCCCN1C(=O)c2ccc3c4c(ccc(c24)C1=O)C(=O)N(CCCNCc1ccccc1OC)C3=O	0.348	0.895	0.194	2	0.121	0.256	0.192	0.633	0.135	0.365	0.274	0.799	0.213	0.666
CC(C)c1ccc2c(c1)CCC1C2CCCC1(C)NCc1ccccc1 (stereo not given)	8.42	20.8	5.32	27.9	0.332	1.11	8.94	21.4	2.27	7.12	2.02	4.98	2.17	6.17
OCc1ccc(N2CCc3ccc(F)cc3C2)cc1Cl	15.2	29.3	2.6	9.97	0.121	0.36	0.29	15.5	3.73	12.3	0.263	10.7	0.0728	1.96
OC[C@H]1C[C@](O)(c2ccc(F)cc2)[C@@H](c2ccc(F)cc2)O1	> 100	> 100	> 100	> 100	> 100	> 100	> 100	> 100	> 100	> 100	> 100	> 100	> 100	> 100
